Ki data for 23 molecules are collected here from patent US20260242353A1, “HETEROARYL DERIVATIVES AS DDRs INHIBITORS” (CHIESI FARMACEUTICI S.P.A., priority 2022, published 2026).

SMILES strings stand for the structures.

In one assay the target is T1, DDR1 (Homo sapiens, UniProt Q08345).
T1 construct: purchased Carna Biosciences
Put plainly: LanthaScreen Europium Kinase Binding assay, DDR1. As to conditions: 5 nM DDR1, 20 nM Kinase Tracer 178, 1 h at rt; Ki from IC50 by Cheng-Prusoff; read-out: Ki DDR1. In short, it runs like this:
(§1)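 Compounds were incubated 1 h at rt with 5 nM DDR1 plus 20 nM Kinase Tracer 178, or 5 nM DDR2 plus 10 nM tracer, and 2 nM Eu anti-GST antibody in HEPES pH 7.5 buffer. Read-out was the TR-FRET 665/615 nm ratio. IC50 came from a 4-parameter fit and was converted to Ki by Cheng-Prusoff.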

A further assay concerns the target T2, DDR2 (Homo sapiens, UniProt Q16832).
T2 construct: purchased Life Technologies
T2 sequence (Q16832 22-855): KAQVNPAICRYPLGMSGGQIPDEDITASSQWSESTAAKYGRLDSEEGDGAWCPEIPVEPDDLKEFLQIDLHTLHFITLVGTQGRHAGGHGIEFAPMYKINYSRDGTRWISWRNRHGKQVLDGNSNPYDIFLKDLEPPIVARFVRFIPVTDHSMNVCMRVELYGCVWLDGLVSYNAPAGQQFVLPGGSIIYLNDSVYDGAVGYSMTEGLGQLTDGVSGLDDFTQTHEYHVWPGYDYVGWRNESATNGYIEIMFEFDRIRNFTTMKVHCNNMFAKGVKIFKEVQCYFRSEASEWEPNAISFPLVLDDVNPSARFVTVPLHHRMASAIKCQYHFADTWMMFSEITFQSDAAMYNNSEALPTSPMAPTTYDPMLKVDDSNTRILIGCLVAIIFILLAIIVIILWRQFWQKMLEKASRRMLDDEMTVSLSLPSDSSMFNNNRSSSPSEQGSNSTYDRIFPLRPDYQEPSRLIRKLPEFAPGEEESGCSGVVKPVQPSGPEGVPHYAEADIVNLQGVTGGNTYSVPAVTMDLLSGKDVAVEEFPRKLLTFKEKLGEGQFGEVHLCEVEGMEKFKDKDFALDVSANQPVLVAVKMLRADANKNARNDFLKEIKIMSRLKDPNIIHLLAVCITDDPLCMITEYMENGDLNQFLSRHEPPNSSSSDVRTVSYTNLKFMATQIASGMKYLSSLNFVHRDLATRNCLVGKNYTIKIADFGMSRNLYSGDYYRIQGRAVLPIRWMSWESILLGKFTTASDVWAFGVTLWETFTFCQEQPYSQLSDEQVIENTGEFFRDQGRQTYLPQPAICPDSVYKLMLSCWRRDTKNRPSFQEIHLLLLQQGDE
The assay can be described thus: LanthaScreen Europium Kinase Binding assay, DDR2. As to conditions: 5 nM DDR2, 10 nM Kinase Tracer 178, 1 h at rt; Ki from IC50 by Cheng-Prusoff; read-out: Ki DDR2. In short, it runs like this: as §1

T1 sequence (Q08345 19-913): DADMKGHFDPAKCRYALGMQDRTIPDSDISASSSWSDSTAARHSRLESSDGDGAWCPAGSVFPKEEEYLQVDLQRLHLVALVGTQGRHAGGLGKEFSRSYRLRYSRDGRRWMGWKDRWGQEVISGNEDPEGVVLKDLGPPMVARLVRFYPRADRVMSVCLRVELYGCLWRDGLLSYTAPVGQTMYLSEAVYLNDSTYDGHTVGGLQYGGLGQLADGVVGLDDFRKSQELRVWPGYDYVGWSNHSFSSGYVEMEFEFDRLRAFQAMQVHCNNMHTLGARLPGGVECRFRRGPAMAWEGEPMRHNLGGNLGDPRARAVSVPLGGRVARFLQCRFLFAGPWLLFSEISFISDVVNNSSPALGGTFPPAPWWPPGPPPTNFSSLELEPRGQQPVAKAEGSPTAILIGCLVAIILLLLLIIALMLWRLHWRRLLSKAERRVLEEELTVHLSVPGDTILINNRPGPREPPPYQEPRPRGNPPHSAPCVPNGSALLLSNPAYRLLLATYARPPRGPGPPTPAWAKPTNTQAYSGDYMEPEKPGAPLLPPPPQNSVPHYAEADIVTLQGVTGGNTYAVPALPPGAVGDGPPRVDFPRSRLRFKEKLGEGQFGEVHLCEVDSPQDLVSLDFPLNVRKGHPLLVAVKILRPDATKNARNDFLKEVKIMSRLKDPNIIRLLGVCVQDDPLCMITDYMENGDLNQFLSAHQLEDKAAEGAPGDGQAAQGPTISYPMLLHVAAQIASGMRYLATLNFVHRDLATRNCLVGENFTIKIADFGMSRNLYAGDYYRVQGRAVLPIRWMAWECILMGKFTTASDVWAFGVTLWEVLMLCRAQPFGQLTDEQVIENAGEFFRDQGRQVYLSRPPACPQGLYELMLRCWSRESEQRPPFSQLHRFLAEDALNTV

`COc1ccc(C(=O)Nc2cncc(C(F)(F)F)c2)cc1C1CCN(c2cnn3cccnc23)C1` (single isomer, unassigned) [Example 115, 4-methoxy-3-(1-(pyrazolo[1,5-a]pyrimidin-3-yl)pyrrolidin-3-yl)-N-(5-(trifluoromethyl)pyridin-3-yl)benzamide]: the Ki (commonly the dissociation constant of the complex between target and ligand, obtained from inhibition or displacement) at DDR1 was < 5 nM; at DDR2 it was 5 to 25 nM.
On the same counts, the results for `CNC(=O)c1cc2ncnc(N3CC[C@@H](c4cc(C(=O)Nc5cncc(C(F)(F)F)c5)ccc4C)C3)c2s1` [Example 108, (S)-N-methyl-4-(3-(2-methyl-5-((5-(trifluoromethyl)pyridin-3-yl)carbamoyl)phenyl)pyrrolidin-1-yl)thieno[3,2-d]pyrimidine-6-carboxamide] are < 5 nM and < 5 nM.
`Cc1ccn2ncc(N3CC[C@@H](c4cc(C(=O)Nc5cncc(C(F)(F)F)c5)ccc4C)C3)c2n1` [Example 86, (S)-4-methyl-3-(1-(5-methylpyrazolo[1,5-a]pyrimidin-3-yl)pyrrolidin-3-yl)-N-(5-(trifluoromethyl)pyridin-3-yl)benzamide]: the Ki on DDR1 was < 5 nM; at DDR2 it was 5 to 25 nM.
On to `Cc1ccc(C(=O)Nc2cc(C(C)(C)C(F)(F)F)on2)cc1[C@@H]1CCN(c2cnccn2)C1` [Example 58, (S)-4-methyl-3-(1-(pyrazin-2-yl)pyrrolidin-3-yl)-N-(5-(1,1,1-trifluoro-2-methylpropan-2-yl)isoxazol-3-yl)benzamide], for which the Ki on DDR1 and on DDR2 was < 5 nM each time.
`Cc1ccc(C(=O)Nc2cncc(C(F)(F)F)c2)cc1[C@@H]1CCN(c2cncc(OCCN3CCN(C)CC3)c2)C1` [Example 74, (S)-4-methyl-3-(1-(5-(2-(4-methylpiperazin-1-yl)ethoxy)pyridin-3-yl)pyrrolidin-3-yl)-N-(5-(trifluoromethyl)pyridin-3-yl)benzamide]: the inhibition constant Ki at DDR1 was < 5 nM; on DDR2, 5 to 25 nM.
On the same counts, the results for `Cc1ccc(C(=O)Nc2cncc(C(F)(F)F)c2)cc1[C@@H]1CCN(c2cnccc2C#N)C1` [Example 75, (S)-3-(1-(4-cyanopyridin-3-yl)pyrrolidin-3-yl)-4-methyl-N-(5-(trifluoromethyl)pyridin-3-yl)benzamide] are < 5 nM and < 5 nM.
The matching figures for `Cc1ccc(C(=O)Nc2cncc(C(F)(F)F)c2)cc1[C@@H]1CCN(c2cncc(C(=O)N3CCN(C)CC3)c2)C1` [Example 40, (S)-4-methyl-3-(1-(5-(4-methylpiperazine-1-carbonyl)pyridin-3-yl)pyrrolidin-3-yl)-N-(5-(trifluoromethyl)pyridin-3-yl)benzamide]: < 5 nM and 5 to 25 nM.
On the same counts, the results for `CCc1cc(NC(=O)c2ccc(C)c([C@@H]3CCN(c4cnccc4C#N)C3)c2)no1` [Example 56, (S)-3-(1-(4-cyanopyridin-3-yl)pyrrolidin-3-yl)-N-(5-ethylisoxazol-3-yl)-4-methylbenzamide] are < 5 nM and < 5 nM.
For `CC(=O)Nc1ncc(N2CC[C@@H](c3cc(C(=O)Nc4cncc(C(F)(F)F)c4)ccc3C)C2)cn1` [Example 130, (S)-3-(1-(2-acetamidopyrimidin-5-yl)pyrrolidin-3-yl)-4-methyl-N-(5-(trifluoromethyl)pyridin-3-yl)benzamide], the figures for the Ki at DDR1 and at DDR2 were < 5 nM and 5 to 25 nM, respectively.
Take `Cc1ccc(C(=O)Nc2cc(OC(F)F)ccn2)cc1[C@@H]1CCN(c2cncnc2)C1` [Example 21, (S)-N-(4-(difluoromethoxy)pyridin-2-yl)-4-methyl-3-(1-(pyrimidin-5-yl)pyrrolidin-3-yl)benzamide]: the Ki at DDR1 and on DDR2 was < 5 nM throughout.
Consider `COc1cnc2c(N3CC[C@@H](c4cc(C(=O)Nc5cncc(C(F)(F)F)c5)ccc4C)C3)cnn2c1` [Example 97, (S)-3-(1-(6-methoxypyrazolo[1,5-a]pyrimidin-3-yl)pyrrolidin-3-yl)-4-methyl-N-(5-(trifluoromethyl)pyridin-3-yl)benzamide], for which the figures for the Ki on DDR1 and on DDR2 were < 5 nM and 5 to 25 nM, respectively.
The matching figures for `CC(=O)Nc1cc(N2CC[C@@H](c3cc(C(=O)Nc4cncc(C(F)(F)F)c4)ccc3C)C2)ccn1` [Example 85, (S)-3-(1-(2-acetamidopyridin-4-yl)pyrrolidin-3-yl)-4-methyl-N-(5-(trifluoromethyl)pyridin-3-yl)benzamide]: < 5 nM and 5 to 25 nM.
On the same counts, the results for `COCC(=O)Nc1ccc(OC2CN(c3cc(C(=O)Nc4cncc(C(F)(F)F)c4)ccc3C)C2)cn1` [Example 46, 3-(3-((6-(2-methoxyacetamido)pyridin-3-yl)oxy)azetidin-1-yl)-4-methyl-N-(5-(trifluoromethyl)pyridin-3-yl)benzamide] are 5 to 25 nM and 25 to 100 nM.
The matching figures for `Cc1ccc(C(=O)Nc2cncc(C(F)(F)F)c2)cc1N1CC(Oc2ccc(N)nc2)C1` [Example 44, 3-(3-((6-aminopyridin-3-yl)oxy)azetidin-1-yl)-4-methyl-N-(5-(trifluoromethyl)pyridin-3-yl)benzamide]: 5 to 25 nM and 25 to 100 nM.
For `Cc1ccc(C(=O)Nc2cc(C(C)(C)C)n(C)n2)cc1[C@@H]1CCN(c2ccnc(C(N)=O)c2)C1` [Example 52, (S)-4-(3-(5-((5-(tert-butyl)-1-methyl-1H-pyrazol-3-yl)carbamoyl)-2-methylphenyl)pyrrolidin-1-yl)picolinamide], the results for the Ki on DDR1 and at DDR2 were < 5 nM and 5 to 25 nM, respectively.
Take `COc1ccc(C(=O)Nc2cncc(C(F)(F)F)c2)cc1C1CCN(c2cncnc2)C1` (single isomer, unassigned) [Example 110, 4-methoxy-3-(1-(pyrimidin-5-yl)pyrrolidin-3-yl)-N-(5-(trifluoromethyl)pyridin-3-yl)benzamide]: the Ki at DDR1 is < 5 nM; at DDR2, 5 to 25 nM.
The matching figures for `COc1ccc(C(=O)Nc2cncc(C(F)(F)F)c2)cc1C1CCN(c2cnn3cccnc23)C1` (stereo not shown) [Example 112, 4-methoxy-3-(1-(pyrazolo[1,5-a]pyrimidin-3-yl)pyrrolidin-3-yl)-N-(5-(trifluoromethyl)pyridin-3-yl)benzamide]: < 5 nM and 5 to 25 nM.
As to `COc1ccc(C(=O)Nc2cncc(C(F)(F)F)c2)cc1C1CCN(c2cnn3cccnc23)C1` (single isomer, unassigned) [Example 114, 4-methoxy-3-(1-(pyrazolo[1,5-a]pyrimidin-3-yl)pyrrolidin-3-yl)-N-(5-(trifluoromethyl)pyridin-3-yl)benzamide], the Ki on DDR1 is < 5 nM; at DDR2, 5 to 25 nM.
The matching figures for `Cc1ccc(C(=O)Nc2cncc(C(F)(F)F)c2)cc1[C@@H]1CCN(c2ncnc3cc(C(=O)N4CCOCC4)sc23)C1` [Example 61, (S)-4-methyl-3-(1-(6-(morpholine-4-carbonyl)thieno[3,2-d]pyrimidin-4-yl)pyrrolidin-3-yl)-N-(5-(trifluoromethyl)pyridin-3-yl)benzamide]: < 5 nM and 5 to 25 nM.
The matching figures for `Cc1ccc(C(=O)Nc2cncc(C(F)(F)F)c2)cc1[C@@H]1CCN(c2cncc(OCCO)c2)C1` [Example 103, (S)-3-(1-(5-(2-hydroxyethoxy)pyridin-3-yl)pyrrolidin-3-yl)-4-methyl-N-(5-(trifluoromethyl)pyridin-3-yl)benzamide]: < 5 nM and < 5 nM.
On the same counts, the results for `Cc1ccc(C(=O)Nc2cncc(C(F)(F)F)c2)cc1[C@@H]1CCN(c2cnc3ccc(N4CCOCC4)nn23)C1` [Example 84, (S)-4-methyl-3-(1-(6-morpholinoimidazo[1,2-b]pyridazin-3-yl)pyrrolidin-3-yl)-N-(5-(trifluoromethyl)pyridin-3-yl)benzamide] are < 5 nM and 5 to 25 nM.
Consider `COCCOc1cncc(N2CC[C@@H](c3cc(C(=O)Nc4cncc(C(F)(F)F)c4)ccc3C)C2)c1` [Example 79, (S)-3-(1-(5-(2-methoxyethoxy)pyridin-3-yl)pyrrolidin-3-yl)-4-methyl-N-(5-(trifluoromethyl)pyridin-3-yl)benzamide], for which the Ki was < 5 nM at DDR1 and 5 to 25 nM on DDR2.
Consider `Cc1ccc(C(=O)Nc2cncc(C(F)(F)F)c2)cc1[C@@H]1CCN(c2cncc(OC3CCN(C)CC3)c2)C1` [Example 81, (S)-4-methyl-3-(1-(5-((1-methylpiperidin-4-yl)oxy)pyridin-3-yl)pyrrolidin-3-yl)-N-(5-(trifluoromethyl)pyridin-3-yl)benzamide], for which the Ki at DDR1 was < 5 nM; on DDR2 it was 5 to 25 nM.
